Consider four compounds from article PMC9636434, “Discovery of small molecule agonists of the Relaxin Family Peptide Receptor 2” (Communications Biology, 2022).

Holding throughout (format): cell-based
For one assay, the target named is RXFP2 (Homo sapiens, UniProt Q8WXD0). The assay can be described thus: HTRF cAMP assay in HEK-RXFP2 cells (stably transfected; also primary HTS). The arrangement: FLAG (N); expressed in transfected cells. As to conditions: Fig. 1a, initial hit and enantiomers. The method, then:
A quantitative high-throughput screening (HTS) of more than 80 K compounds of the NCATS/NIH diversity collection was performed at four concentrations in HEK293T cells stably expressing human RXFP2 to identify candidate agonists. A homogenous time resolved fluorescence (HTRF) assay was used to directly detect compound-induced cAMP accumulation, with forskolin or human recombinant INSL3 serving as positive controls. […] A confirmatory CRE-luciferase cAMP screen was used to eliminate any potential false positives due to assay detection artifacts (Supplementary Fig. 1a).
The cAMP response induced by the compounds was normalized to the cAMP response induced by 100 nM INSL3 as 100% efficacy and the cAMP response induced by DMSO vehicle as 0% efficacy. Emax and EC50 were calculated using four parameter nonlinear fit dose-response stimulation curves. […] Molecular weight (MW).
The HTRF Gs dynamic cAMP assay kit (CisBio, Bedford, MA) was used to measure intracellular cAMP accumulation in HEK293T cells (ATCC, Manassas, VA)[56]. […] The cell stock was verified mycoplasma free and authenticated by ATCC. Transient transfection was accomplished by treating cells in a 6-well plate with a mixture of 2 μg plasmid and 6 μL Lipofectamine 2000 (Invitrogen, Waltham, MA) per manufacturer’s protocol and incubating overnight. For cAMP measurement in 96-well format, HEK293T cells stably transfected with human RXFP2 (HEK-RXFP2), human RXFP1 (HEK-RXFP1), mouse Rxfp1 (HEK-Rxfp1) or transiently transfected with human RXFP1-RXFP2 chimeric receptors were seeded between 7500 and 30,000 cells per well, depending on cell line responsiveness, in serum-free DMEM medium and incubated overnight at 37 °C, 5% CO2. After 18 h, cells were treated with a titration of compound, 2 μM forskolin, or DMSO vehicle. Control wells were also treated with a titration of INSL3 (Phoenix Pharmaceuticals, Burlingame, CA) or human recombinant relaxin 2 (Peprotech, Cranbury, NJ). For the RXFP2 antagonist experiment, cells were co-treated with 0.28 μM compound or 30 nM INSL3 and a titration of the INSL3 B dimer antagonist[38],[39]. For the INSL3 allosteric modulation experiment, cells were co-treated with 0.025, 0.0025, or 0.00025 μM of compound and a titration of INSL3. Cells were incubated for 1 h at 37 °C, 5% CO2, and then kit cAMP-d2 and anti-cAMP antibody were added per manufacturer protocol. Plates were incubated for 1 h at room temperature and the signal was read on a CLARIOstar plate reader (BMG Labtech, Ortenberg, Germany) at 665 and 620 nm emission wavelengths.

Another assay deals with T1, human RXFP3 (Homo sapiens, UniProt Q9NSD7).
T1 construct: host or cells: HEK293T (transient)
T1 sequence (Q9NSD7 1-469): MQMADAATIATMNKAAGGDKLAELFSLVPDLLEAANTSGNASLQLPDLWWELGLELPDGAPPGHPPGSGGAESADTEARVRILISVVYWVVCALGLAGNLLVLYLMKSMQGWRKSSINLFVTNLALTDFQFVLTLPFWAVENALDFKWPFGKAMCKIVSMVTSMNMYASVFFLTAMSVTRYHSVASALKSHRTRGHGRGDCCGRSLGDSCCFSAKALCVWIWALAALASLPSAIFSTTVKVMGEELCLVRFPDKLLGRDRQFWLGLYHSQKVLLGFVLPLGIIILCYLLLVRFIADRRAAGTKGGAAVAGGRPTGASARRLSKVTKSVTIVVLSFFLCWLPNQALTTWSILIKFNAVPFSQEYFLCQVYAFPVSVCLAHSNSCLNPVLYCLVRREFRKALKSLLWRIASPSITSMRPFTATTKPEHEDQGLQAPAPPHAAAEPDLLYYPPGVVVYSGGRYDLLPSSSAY
The assay can be described thus: GloSensor cAMP assay in RXFP3 transiently transfected HEK293T cells. The settings on record: for RLU (cAMP, raw): RXFP3, 0.1 µM isoproterenol, replicates (1)-(4). For orientation: cAMP levels reflect the balance of adenylyl cyclase and phosphodiesterase activity.

In the next assay the target is T2, human RXFP4 (Homo sapiens, UniProt Q8TDU9).
T2 construct: host or cells: HEK293T (transient)
T2 sequence (Q8TDU9 whole entry): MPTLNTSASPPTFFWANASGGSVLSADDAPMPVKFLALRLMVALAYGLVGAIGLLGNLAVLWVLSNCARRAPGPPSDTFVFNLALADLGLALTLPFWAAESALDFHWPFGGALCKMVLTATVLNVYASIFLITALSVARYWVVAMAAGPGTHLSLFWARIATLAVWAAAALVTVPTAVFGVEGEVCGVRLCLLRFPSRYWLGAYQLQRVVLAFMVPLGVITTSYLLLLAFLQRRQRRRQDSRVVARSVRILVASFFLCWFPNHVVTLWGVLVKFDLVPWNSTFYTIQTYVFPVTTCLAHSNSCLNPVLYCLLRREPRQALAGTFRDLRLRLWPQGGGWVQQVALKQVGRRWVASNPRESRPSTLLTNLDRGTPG
In words: GloSensor cAMP assay in RXFP4 transiently transfected HEK293T cells. As to conditions: for RLU (cAMP, raw): RXFP4, 0.1 µM isoproterenol, replicates (1)-(4).

Setting [1] is: cAMP induced by 0.1 µM isoproterenol.

Where “and” joins values, the source holds several entries; their conditions need not be identical. Equal entries are not always repeated.

Chain of RXFP2 (Q8WXD0 whole entry): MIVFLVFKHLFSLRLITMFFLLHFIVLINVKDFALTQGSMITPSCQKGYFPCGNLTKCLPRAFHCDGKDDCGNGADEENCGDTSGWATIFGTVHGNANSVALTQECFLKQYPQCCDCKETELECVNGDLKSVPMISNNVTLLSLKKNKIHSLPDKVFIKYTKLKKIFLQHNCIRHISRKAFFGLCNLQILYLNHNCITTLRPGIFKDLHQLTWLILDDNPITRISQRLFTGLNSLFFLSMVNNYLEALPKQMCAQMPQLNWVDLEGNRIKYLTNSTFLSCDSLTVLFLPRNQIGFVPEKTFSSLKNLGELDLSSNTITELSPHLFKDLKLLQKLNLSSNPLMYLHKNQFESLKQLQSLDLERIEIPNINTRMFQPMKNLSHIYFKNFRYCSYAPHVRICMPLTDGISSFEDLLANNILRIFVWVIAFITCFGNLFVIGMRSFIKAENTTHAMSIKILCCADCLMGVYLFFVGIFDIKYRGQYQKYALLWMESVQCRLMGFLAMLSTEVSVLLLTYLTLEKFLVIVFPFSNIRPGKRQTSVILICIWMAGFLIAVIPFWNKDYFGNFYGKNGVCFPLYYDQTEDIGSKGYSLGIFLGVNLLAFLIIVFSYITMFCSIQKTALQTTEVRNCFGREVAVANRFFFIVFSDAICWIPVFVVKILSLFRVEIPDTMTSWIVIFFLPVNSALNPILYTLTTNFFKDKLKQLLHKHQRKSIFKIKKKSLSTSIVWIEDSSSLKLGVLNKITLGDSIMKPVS

`O=C1Nc2ccc(-c3cccc(C(F)(F)F)c3)cc2C(=O)N2CCN(C(=O)COc3ccccc3)CC12` (centres unmarked) [compound 8685]: the “RXFP2 agonist activity in SAR scheme (Active / Inactive)” value on RXFP2 is reported as “Active”.

For the compound `O=C1Nc2ccc(-c3cccc(C(F)(F)F)c3)cc2C(=O)N2CCN(C(=O)COc3ccccc3)C[C@H]12` [compound 9940], on RXFP2, the “RXFP2 agonist activity in SAR scheme (Active / Inactive)” value is recorded as “Inactive”.

As to `O=C1Nc2ccc(-c3cccc(C(F)(F)F)c3)cc2C(=O)N2CCN(C(=O)COc3ccccc3)C[C@@H]12` [compound 9941], the “RXFP2 agonist activity in SAR scheme (Active / Inactive)” value on RXFP2 is “Active”.

In the case of Relaxin 3 [reference compound], the “RLU (cAMP, raw)” value is 1192.27 RLU and 862.59 RLU and 949.473 RLU and 1055.99 RLU on human RXFP3 (Log [M] -6.52); 1047.66 RLU and 816.174 RLU and 793.561 RLU and 818.554 RLU at human RXFP3 (Log [M] -7); 956.019 RLU and 1042.31 RLU and 964.35 RLU and 906.626 RLU at human RXFP3 (Log [M] -7.52); 852.474 RLU and 715.01 RLU and 962.564 RLU and 860.21 RLU at human RXFP3 (Log [M] -8); 886.989 RLU and 845.333 RLU and 966.73 RLU and 845.928 RLU at human RXFP3 (Log [M] -8.52); 816.769 RLU and 926.264 RLU and 1003.03 RLU and 782.254 RLU on human RXFP3 (Log [M] -9). The “RLU (cAMP, raw)” value on human RXFP3 (Log [M] -9.52) was 998.865 RLU and 951.853 RLU and 1093.48 RLU and 960.779 RLU; on human RXFP3 (Log [M] -10), 1300.57 RLU and 1261.3 RLU and 1319.62 RLU and 1454.11 RLU; at human RXFP3 (Log [M] -10.52) it was 1602.51 RLU and 1583.63 RLU and 1833.56 RLU and 1666.69 RLU; at human RXFP3 (Log [M] -11), 1772.4 RLU and 1591.93 RLU and 1761.07 RLU and 2392.31 RLU; at human RXFP3 (Log [M] -11.52) it was 1947.57 RLU and 1934.74 RLU and 2203.54 RLU and 1701.42 RLU; at human RXFP3 (Log [M] -12), 1918.12 RLU and 1736.15 RLU and 2144.65 RLU and 2026.1 RLU. For the same compound, the “RLU (cAMP, raw)” value on human RXFP4 (Log [M] -6.48) is 1291.4 RLU and 1273.39 RLU and 1346.81 RLU and 1344.73 RLU; on human RXFP4 (Log [M] -7), 1098.17 RLU and 1299.02 RLU and 1204.83 RLU and 1290.02 RLU; at human RXFP4 (Log [M] -7.48), 1677.86 RLU and 1738.12 RLU and 1419.53 RLU and 1594.75 RLU; on human RXFP4 (Log [M] -8), 1308.71 RLU and 1324.64 RLU and 953.421 RLU and 1409.83 RLU; on human RXFP4 (Log [M] -8.48), 1529.65 RLU and 1656.39 RLU and 1650.16 RLU and 1971.52 RLU; at human RXFP4 (Log [M] -9), 1954.9 RLU and 1829.54 RLU and 1896.03 RLU and 2124.58 RLU. The “RLU (cAMP, raw)” value at human RXFP4 (Log [M] -9.48) is 2502.74 RLU and 2781.85 RLU and 2785.32 RLU and 3087.98 RLU; on human RXFP4 (Log [M] -10), 2794.2 RLU and 2602.12 RLU and 2925.02 RLU and 3021.06 RLU; at human RXFP4 (Log [M] -10.48) it was 3431.68 RLU and 3104.99 RLU and 3415.8 RLU and 3651.73 RLU; on human RXFP4 (Log [M] -11), 3106.51 RLU and 3181.37 RLU and 2993.83 RLU and 2959.05 RLU; at human RXFP4 (Log [M] -11.48) it was 3672.91 RLU and 3117.85 RLU and 3373.45 RLU and 3185.15 RLU; on human RXFP4 (Log [M] -12) it was 3273.63 RLU and 3139.78 RLU and 2622.54 RLU and 2913.68 RLU. Besides, the “activation of RXFP3 (cAMP inhibition)” value at human RXFP3 (setting [1]) is listed as “cAMP inhibition was induced”. On human RXFP4 (setting [1]), the “activation of RXFP4 (cAMP inhibition)” value is on record as “cAMP inhibition was induced”.
